Measurements published in ChEMBL document CHEMBL5625235, “Discovery of X10g as a selective PROTAC degrader of Hsp90α protein for treating breast cancer” (Eur J Med Chem, 2023).
Activity calls are given as the source filed them. The calls are words filed in the database; no cut-off is given here.

Assays:
MDA-MB-468 = assay: Antiproliferative activity against human MDA-MB-468 cells assessed as inhibition of cell proliferation incubated for 72 hrs by MTT assay; format: functional, cell-based; conditions: MDA-MB-468, 72 h
MX1 = assay: Antiproliferative activity against human MX1 cells assessed as inhibition of cell proliferation incubated for 72 hrs by MTT assay; format: functional, cell-based; conditions: MX1, 72 h
MDA-MB-231 = assay: Antiproliferative activity against human MDA-MB-231 cells assessed as inhibition of cell proliferation incubated for 72 hrs by MTT assay; format: functional, cell-based; conditions: MDA-MB-231, 72 h
[1] = biological target: T1, Protein cereblon/Heat shock protein HSP 90-alpha (Homo sapiens, UniProt P07900+Q96SW2); assay: PROTAC activity at CRBN/HSP90alpha in human MCF7 cells assessed as induction of HSP90alpha degradation at 0.5 uM incubated for 8 hrs by Western blot analysis; format: cell-based
[2] = biological target: T2, Protein cereblon/Heat shock protein HSP 90-beta (Homo sapiens) (UniProt P08238+Q96SW2); assay: PROTAC activity at CRBN/HSP90beta in human MCF7 cells assessed as induction of HSP90beta degradation at 0.5 uM incubated for 8 hrs by Western blot analysis; format: cell-based
MCF7 [3] = assay: Antiproliferative activity against human MCF7 cells assessed as inhibition of cell proliferation incubated for 72 hrs by MTT assay; format: functional, cell-based; conditions: MCF7, 72 h
[4] = biological target: Heat shock protein HSP 90-alpha (Homo sapiens, UniProt P07900); assay: Induction of HSP90alpha degradation in human MCF7 cells at 0.5 uM incubated for 8 hrs by Western blot analysis; format: cell-based
MCF7 [5] = assay: Potency index, ratio of AT13387 IC50 to test compound IC50 for antiproliferative activity against human MCF7 cells assessed as inhibition of cell proliferation incubated for 72 hrs by MTT assay; format: functional
[6] = Toxicity in BALB/c mouse implanted with mouse 4T1 cells assessed as effect on body weight at 60 mg/kg, ip administered daily for 20 days; format: organism-based; conditions: in vivo, 480 h, time 20 day
[7] = AUCall in rat at 15 mg/kg, ip administered as single dose and measured at 5 to 480 mins by LC-MS analysis; format: ADME, organism-based; conditions: in vivo, time 5-480 min
4T1 [8] = assay: Antitumor activity against mouse 4T1 cells implanted in BALB/c mouse assessed as tumor growth inhibition at 60 mg/kg, ip administered daily for 20 days relative to control; format: functional; conditions: 4T1, 480 h, time 20 day, read-out: TGI
4T1 [9] = assay: Antitumor activity against mouse 4T1 cells implanted in BALB/c mouse assessed as reduction in tumor weight at 60 mg/kg, ip administered daily for 20 days; format: functional, organism-based; conditions: time 20.0 day
[10] = biological target: T2, Protein cereblon/Heat shock protein HSP 90-beta (Homo sapiens); assay: PROTAC activity at CRBN/HSP90beta in human MCF7 cells assessed as induction of CDK4 degradation at 0.5 uM incubated for 8 hrs by Western blot analysis; format: cell-based
[11] = biological target: T1, Protein cereblon/Heat shock protein HSP 90-alpha; assay: PROTAC activity at CRBN/HSP90alpha in human MCF7 cells assessed as induction of HSP90alpha degradation incubated for 8 hrs by Western blot analysis; format: cell-based
[12] = biological target: T1, Protein cereblon/Heat shock protein HSP 90-alpha; assay: PROTAC activity at CRBN/HSP90alpha in human MCF7 cells assessed as induction of HSP90alpha degradation at 0.5 uM incubated for 8 hrs in presence of MLN4924 by Western blot analysis; format: cell-based
[13] = Cmax in rat at 15 mg/kg, ip administered as single dose and measured at 5 to 480 mins by LC-MS analysis; format: ADME, organism-based; conditions: in vivo, time 5-480 min
[14] = biological target: T1, Protein cereblon/Heat shock protein HSP 90-alpha; assay: PROTAC activity at CRBN/HSP90alpha in human MCF7 cells assessed as induction of HSP90alpha degradation by measuring maximal efficacy at high concentration incubated for 8 hrs by Western blot analysis; format: cell-based
[15] = Half-life in rat at 15 mg/kg, ip administered as single dose and measured at 5 to 480 mins by LC-MS analysis; format: ADME, organism-based; conditions: in vivo, time 5-480 min
[16] = biological target: T1, Protein cereblon/Heat shock protein HSP 90-alpha; assay: Binding affinity to CRBN/HSP90alpha (unknown origin) assessed as ternary complex formation; format: protein assay
[17] = biological target: T1, Protein cereblon/Heat shock protein HSP 90-alpha; assay: PROTAC activity at CRBN/HSP90alpha in human MCF7 cells assessed as induction of survivin degradation at 0.5 uM incubated for 8 hrs by Western blot analysis; format: cell-based
[18] = AUC(0 to infinity) in rat at 15 mg/kg, ip administered as single dose and measured at 5 to 480 mins by LC-MS analysis; format: ADME, organism-based; conditions: in vivo, time 5-480 min
[19] = Tmax in rat at 15 mg/kg, ip administered as single dose and measured at 5 to 480 mins by LC-MS analysis; format: ADME, organism-based; conditions: in vivo, time 5-480 min
[20] = biological target: T1, Protein cereblon/Heat shock protein HSP 90-alpha; assay: PROTAC activity at CRBN/HSP90alpha in human MCF7 cells assessed as induction of HSP90alpha degradation at 0.5 uM incubated for 8 hrs in presence of AT13387 by Western blot analysis; format: cell-based
[21] = biological target: T1, Protein cereblon/Heat shock protein HSP 90-alpha; assay: PROTAC activity at CRBN/HSP90alpha in human MCF7 cells assessed as induction of HSP90alpha degradation at 0.5 uM incubated for 8 hrs in presence of MG132 by Western blot analysis; format: cell-based
[22] = Toxicity in BALB/c mouse implanted with mouse 4T1 cells assessed as mortality at 60 mg/kg, ip administered daily for 20 days; format: organism-based; conditions: in vivo, 480 h, time 20 day
[23] = biological target: T1, Protein cereblon/Heat shock protein HSP 90-alpha; assay: PROTAC activity at CRBN/HSP90alpha in human MCF7 cells assessed as induction of HSP90alpha degradation by measuring maximal efficacy at 0.1 to 5 uM incubated for 8 hrs by Western blot analysis relative to control; format: cell-based; conditions: dose 0.1-5 µM
[24] = biological target: T1, Protein cereblon/Heat shock protein HSP 90-alpha; assay: PROTAC activity at CRBN/HSP90alpha in human MCF7 cells assessed as induction of HSP90alpha degradation at 0.5 uM incubated for 8 hrs in presence of pomalidomide by Western blot analysis; format: cell-based

Compound | IC50 (MDA-MB-468) [µM] | IC50 (MX1) [µM] | IC50 (MDA-MB-231) [µM] | Activity [1] | Activity [2] | IC50 (MCF7 [3]) [µM] | further results
CC(C)c1cc(C(=O)N2Cc3ccc(CN4CCN(C(=O)CCCNc5cccc6c5CN(C5CCC(=O)NC5=O)C6=O)CC4)cc3C2)c(O)cc1O (configuration not stated) | 25.8 | 1.19 | 7.87 | inactive | inactive | 3.42 | 
CC(C)c1cc(C(=O)N2Cc3ccc(CN4CCN(CCCCCCCC(=O)Nc5cccc6c5C(=O)N(C5CCC(=O)NC5=O)C6=O)CC4)cc3C2)ccc1O (configuration not stated) | 35.9 | 63 | > 100 |  |  | 18.5 | 
Nc1cccc2c1C(=O)N(C1CCC(=O)NC1=O)C2=O (configuration not stated) [POMALIDOMIDE] | > 100 | > 100 | > 100 |  |  | > 100 | Activity [4]: inactive
CC(C)c1cc(C(=O)N2Cc3ccc(CN4CCN(CCCC(=O)Nc5cccc6c5C(=O)N(C5CCC(=O)NC5=O)C6=O)CC4)cc3C2)c(O)cc1O (configuration not stated) | 3.03 | 0.22 | 2.04 | inactive | inactive | 0.02 | 
CC(C)c1cc(C(=O)N2Cc3ccc(CN4CCN(CCCCC(=O)Nc5cccc6c5C(=O)N(C5CCC(=O)NC5=O)C6=O)CC4)cc3C2)ccc1O (configuration not stated) | 87.1 | 76.6 | 94.2 |  |  | 48.2 | 
CC(C)c1cc(C(=O)N2Cc3ccc(CN4CCN(CCC(=O)Nc5cccc6c5C(=O)N(C5CCC(=O)NC5=O)C6=O)CC4)cc3C2)c(O)cc1O (configuration not stated) | 6.19 | 0.09 | 6.8 | inactive | inactive | 0.03 | Ratio IC50 (MCF7 [5]): ~35
CC(C)c1cc(C(=O)N2Cc3ccc(CN4CCN(CCCC(=O)Nc5cccc6c5C(=O)N(C5CCC(=O)NC5=O)C6=O)CC4)cc3C2)ccc1O (configuration not stated) | 41.6 | 40.8 | 72.8 |  |  | 7.5 | 
CC(C)c1cc(C(=O)N2Cc3ccc(CN4CCN(CCCCCC(=O)Nc5cccc6c5C(=O)N(C5CCC(=O)NC5=O)C6=O)CC4)cc3C2)ccc1O (configuration not stated) | 30.1 | 34.6 | 71.8 |  |  | 30.5 | 
CC(C)c1cc(C(=O)N2Cc3ccc(CN4CCN(C(=O)CNc5cccc6c5CN(C5CCC(=O)NC5=O)C6=O)CC4)cc3C2)c(O)cc1O (configuration not stated) | 5.1 | 3.46 | 7.69 | inactive | inactive | 2.03 | 
CC(C)c1cc(C(=O)N2Cc3ccc(CN4CCN(CCCCCCC(=O)Nc5cccc6c5C(=O)N(C5CCC(=O)NC5=O)C6=O)CC4)cc3C2)ccc1O (configuration not stated) | 16.5 | 12 | 51.5 | Active | inactive | 8.93 | Activity [6]: Non-Toxic; AUC [7]: 703 ng·h/mL; inhibition in vivo at 60 mg/kg (4T1 [8]): 54%; Activity (4T1 [9]): Active; Activity [10]: inactive; DC50 [11]: 0.295 µM; Activity [12]: inactive; Cmax [13]: 302 ng/mL; Activity [14]: inactive; half-life [15]: 2.5 h; Activity [16]: Active; Activity [17]: Active; AUC(0-inf) [18]: 758 ng·h/mL; Tmax [19]: 0.6 h; Activity [20]: inactive; Activity [21]: inactive; Activity [22]: Non-Toxic; Emax [23]: 66.4%; Activity [24]: inactive
CC(C)c1cc(C(=O)N2Cc3ccc(CN4CCN(CCCCC(=O)Nc5cccc6c5C(=O)N(C5CCC(=O)NC5=O)C6=O)CC4)cc3C2)c(O)cc1O (configuration not stated) | 5.27 | 6.78 | 18.8 | inactive | inactive | 4.28 | 
